Where “and” joins values, the source holds several entries; their conditions need not be identical. Identical values can stand only once. Entries after “also recorded” stand apart in the source; their conditions may differ. Marks after values point to notes of the source that are not given here.
System: mouse model of cutaneous injury
Assay: Wound healing in skin, mouse model of cutaneous injury (skin punch)
Type: in vivo
Details: for CT50 (Days), wound half-closure time, Mean: linear regression
Description: Test substance ON 01210.Na Solution was evaluated for possible effects on wound healing in a mouse model of cutaneous injury. The test substance was administered subcutaneously (SC) in two dosing regimens: the first was 24 hours and 15 minutes before skin punch, and the second was 4 hours and 15 minutes before skin punch. Percent closure of the wound (%) was determined on days 1, 3, 5, 7, 9, 11, 13, 15, 17, 19, 21 and 22, and the half closure time (CT50) was then obtained. One-way ANOVA followed by Dunnett's test was used to determine significant difference between vehicle control and treated groups at individual time points. Significant differences are considered at P<0.05 level.
ON 01210.Na Solution was provided by Onconova Therapeutics Inc in a preformulated form. Test substance was administered subcutaneously (SC) in two dosing patterns, the first was 24 hours and 15 minutes before skin punch, and the second was 4 hours and 15 minutes before skin punch. The dosing time of vehicle (ON 01210.Na Placebo Solution) was given as the second pattern. The dosing volume was 10 mL/kg.
Animals: Male ICR mice weighing 24±2 g were provided by BioLasco Taiwan (under Charles River Laboratories Technology Licensee). Test animals were housed individually in a cage (29×18×13 cm) after skin injury through experiment. All animals were maintained in a controlled temperature (21-23° C.) and humidity (50%-70%) environment with 12 hours light/dark cycles for at least three days in MDS Pharma Services—Taiwan Laboratory prior to use. Free access to standard lab chow for Mice [MF-18 (Oriental Yeast Co., Ltd., Japan)] and reverse osmosis (RO) water was granted. All aspects of this work including housing, experimentation and disposal of animals were performed in general accordance with the Guide for the Care and Use of Laboratory Animals (National Academy Press, Washington, D.C., 1996).
Groups of 8 ICR male mice weighing 24±2 g were used. During the study, the tested animals were housed in individual cages. Under hexobarbital (90 mg/kg, IP) anesthesia, the shoulder and back region of each animal was shaved. A sharp punch (ID 12 mm) was applied to remove the skin including panniculus carnosus and adherent tissues. Test substance was administered subcutaneously in two dosing patterns, the first was 24 hours and 15 minutes before skin punch, and the second was 4 hours and 15 minutes before skin punch the dosing time of vehicle (ON 01210.Na Placebo Solution) was given as the second dosing pattern. The wound area, traced onto clear plastic sheets, was measured by use of an Image—ProPlus (Media Cybernetics, Version 4.5.0.29) on days 1, 3, 5, 7, 9, 11, 13, 15, 17, 19, 21 and 22. The percent closure of the wound (%) was calculated, and wound half-closure time (CT50) was analyzed by linear regression using Graph-Prism (Graph Software USA). One-way ANOVA followed by Dunnett's test was applied for comparison between the treated and vehicle groups at each measurement time point. Differences are considered statistically significant at P<0.05.
Test substance was administered subcutaneously (SC) in two dosing patterns, the first was 24 hours and 15 minutes before skin punch, and the second was 4 hours and 15 minutes before skin punch; the dosing time of vehicle (ON 01210.Na Placebo Solution) was given as the second pattern. The wound closure (%) and wound half-closure time (CT50) were determined. One-way ANOVA followed by Dunnett's test was applied for comparison between the treated and vehicle groups. *P<0.05, vs. vehicle control.

[1] = 500 mg/kg × 2 SC (−4 hr, −15 min), individual surviving mice N 1-6, sodium salt
[2] = 500 mg/kg × 2 SC (−4 hr, −15 min), individual surviving mice N 1-6
[3] = 500 mg/kg × 2 SC (−4 hr, −15 min before skin punch), mean of surviving animals, sodium salt
[4] = 500 mg/kg × 2 SC (−4 hr, −15 min before skin punch), mean of surviving animals
[5] = 500 mg/kg × 2 SC (−24 hr, −15 min), individual mice N 1-8
[6] = 500 mg/kg × 2 SC (−24 hr, −15 min), individual mice N 1-8, sodium salt
[7] = 500 mg/kg × 2 SC (−24 hr, −15 min before skin punch), group mean
[8] = 500 mg/kg × 2 SC (−24 hr, −15 min before skin punch), group mean, sodium salt

O=C([O-])c1ccc(/C=C/S(=O)(=O)Cc2ccc(Cl)cc2)cc1.[Na+] [ON 01210.Na Solution, (E)-4-carboxystyryl-4-chlorobenzylsulfone sodium salt]
Effect on wound closure vs vehicle control (500 mg/kg SC, 4 hr and 15 min before skin punch, surviving animals, P<0.05 vs vehicle): significant increase in wound closure on days 13 and 15 | Effect on wound closure / wound healing vs vehicle control (500 mg/kg SC, 24 hours and 15 minutes before skin punch, P<0.05 vs vehicle, sodium salt): promoted significant increase in wound closure on days 3, 5, 7, 13, 15 and 17; also recorded: promoted wound healing with significant reduction in CT50 value | The Closure of Wound (%), Individual Value, Day 1 (500 mg/kg × 2 SC (−4 hr, −15 min), individual mice N 1-8): 0.0% | The Closure of Wound (%), Individual Value, Day 3 [1]: 27.9% and 13.0% and 31.4% and 13.4% and 40.5% and 11.7% | The Closure of Wound (%), Individual Value, Day 5 [1]: 40.2% and 23.3% and 37.2% and 24.9% and 48.5% and 18.4% | The Closure of Wound (%), Individual Value, Day 7 [1]: 48.0% and 32.9% and 41.9% and 36.2% and 62.4% and 34.6% | The Closure of Wound (%), Individual Value, Day 9 [1]: 59.0% and 49.2% and 60.3% and 52.9% and 76.3% and 43.0% | The Closure of Wound (%), Individual Value, Day 11 [1]: 65.3% and 68.7% and 73.5% and 77.1% and 79.6% and 66.1% | The Closure of Wound (%), Individual Value, Day 13 [1]: 84.2% and 90.4% and 90.3% and 78.8% and 93.1% and 88.0% | The Closure of Wound (%), Individual Value, Day 15 [1]: 93.4% and 94.6% and 97.2% and 100.0% (2×) and 97.6% | The Closure of Wound (%), Individual Value, Day 17 [1]: 96.7% and 100.0% (5×) | The Closure of Wound (%), Individual Value, Day 19 [2]: 100.0% | The Closure of Wound (%), Individual Value, Day 21 [2]: 100.0% | The Closure of Wound (%), Individual Value, Day 22 [2]: 100.0% | CT50 (Days), Individual Value [1]: 8.0 days and 9.2 days and 7.7 days and 8.9 days and 5.8 days and 9.4 days | Animal died (entry in individual wound-closure tables) (500 mg/kg × 2 SC (−4 hr, −15 min), mice N 7 and 8, Days 3-22, sodium salt): died and Died | The Closure of Wound (%) Day 1, Mean (500 mg/kg × 2 SC (−4 hr, −15 min before skin punch), group mean): 0.0% | The Closure of Wound (%) Day 3, Mean [3]: 23.0% | The Closure of Wound (%) Day 5, Mean [4]: 32.1% | The Closure of Wound (%) Day 7, Mean [4]: 42.7% | The Closure of Wound (%) Day 9, Mean [4]: 56.8% | The Closure of Wound (%) Day 11, Mean [4]: 71.7% | The Closure of Wound (%) Day 13, Mean [3]: 87.5% | The Closure of Wound (%) Day 15, Mean [3]: 97.1% | The Closure of Wound (%) Day 17, Mean [4]: 99.4% | The Closure of Wound (%) Day 19, Mean [4]: 100.0% | The Closure of Wound (%) Day 21, Mean [4]: 100.0% | The Closure of Wound (%) Day 22, Mean [4]: 100.0% | CT50 (Days), wound half-closure time, Mean [3]: 8.2 ± 0.5 days and 8.2 days | The Closure of Wound (%), Individual Value, Day 1 [5]: 0.0% | The Closure of Wound (%), Individual Value, Day 3 [6]: 36.8% and 15.2% and 28.2% and 23.1% and 21.6% and 42.8% and 29.4% and 41.1% | The Closure of Wound (%), Individual Value, Day 5 [6]: 51.5% and 35.7% and 39.1% and 45.1% and 37.7% and 35.6% and 40.9% and 44.4% | The Closure of Wound (%), Individual Value, Day 7 [6]: 49.7% and 47.0% and 45.6% and 56.9% and 46.8% and 60.4% and 52.0% and 55.8% | The Closure of Wound (%), Individual Value, Day 9 [6]: 74.1% and 60.1% and 54.4% and 63.6% and 54.1% and 79.4% and 64.0% and 69.1% | The Closure of Wound (%), Individual Value, Day 11 [6]: 79.5% and 81.7% and 70.4% and 76.3% and 64.4% and 84.4% and 71.4% and 80.8% | The Closure of Wound (%), Individual Value, Day 13 [6]: 84.4% and 90.6% and 83.7% and 89.6% and 85.8% and 95.8% and 80.7% and 95.6% | The Closure of Wound (%), Individual Value, Day 15 [6]: 89.8% and 100.0% (5×) and 97.6% and 88.8% | The Closure of Wound (%), Individual Value, Day 17 [5]: 100.0% | The Closure of Wound (%), Individual Value, Day 19 [5]: 100.0% | The Closure of Wound (%), Individual Value, Day 21 [5]: 100.0% | The Closure of Wound (%), Individual Value, Day 22 [6]: 100% (2×) and 100.0% (6×) | CT50 (Days), Individual Value [6]: 6.6 Days and 8.0 Days (2×) and 7.2 Days and 8.3 Days and 6.0 Days and 7.6 Days and 6.2 Days | The Closure of Wound (%) Day 1, Mean [7]: 0.0% | The Closure of Wound (%) Day 3, Mean [8]: 29.8% | The Closure of Wound (%) Day 5, Mean [8]: 41.3% | The Closure of Wound (%) Day 7, Mean [8]: 51.8% | The Closure of Wound (%) Day 9, Mean [7]: 64.8% | The Closure of Wound (%) Day 11, Mean [7]: 76.1% | The Closure of Wound (%) Day 13, Mean [8]: 88.3% | The Closure of Wound (%) Day 15, Mean [8]: 97.0% | The Closure of Wound (%) Day 17, Mean [8]: 100.0% | The Closure of Wound (%) Day 19, Mean [7]: 100.0% | The Closure of Wound (%) Day 21, Mean [7]: 100.0% | The Closure of Wound (%) Day 22, Mean [7]: 100.0% | CT50 (Days), wound half-closure time, Mean [8]: 7.2 ± 0.3 days and 7.2 days | Animals died (mortality) (500 mg/kg × 2 SC given 4 hr and 15 min before skin punch (interval 3 hr 45 min), mice, cause of death not known, sodium salt): two out of eight animals died; also recorded: (2/8 died) | Wound healing, percentage of wound closure (FIG. 1) (pre-treated 24 hour or 4 hour prior to wound vs placebo): significant improvement in wound healing

From patent US9044427B2, “Compositions and methods for prevention and treatment of wounds” (ONCONOVA THERAPEUTICS, INC, priority 2010, dated 2015)
